Reference: ChEMBL document CHEMBL1201862, “PubChem BioAssay data set” (2004)
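Assay format: 96-well plates, 48-hour exposure. The concentration for 50% growth inhibition is given as GI50.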 Active and inactive are the calls of the source. Cut-off read from the data, not from the text of the source: active = GI50 up to about 1.1 µM and inactive = higher.

How the values were obtained:
Assay in all cases: growth of human tumour cells (NCI), 48 h
K562 = tested on: K562
UACC-257 = tested on: UACC-257
SK-MEL-5 = tested on: SK-MEL-5
HCC 2998 = tested on: HCC 2998
HOP-62 = tested on: HOP-62
IGROV-1 = tested on: IGROV-1
SK-MEL-2 = tested on: SK-MEL-2
U-251 = tested on: U-251
RPMI-8226 = tested on: RPMI-8226
ACHN = tested on: ACHN
PC-3 = tested on: PC-3
SW-620 = tested on: SW-620
SN12C = tested on: SN12C
HCT-15 = tested on: HCT-15
NCI-H460 = tested on: NCI-H460
LOX IMVI = tested on: LOX IMVI
CAKI-1 = tested on: CAKI-1
Malme-3M = tested on: Malme-3M
NCI/ADR-RES = tested on: NCI/ADR-RES
MDA-MB-231 = tested on: MDA-MB-231

SMILES	GI50 (K562)	GI50 (UACC-257)	GI50 (SK-MEL-5)	GI50 (HCC 2998)	GI50 (HOP-62)	GI50 (IGROV-1)	GI50 (SK-MEL-2)	GI50 (U-251)	GI50 (RPMI-8226)	GI50 (ACHN)	GI50 (PC-3)	GI50 (SW-620)	GI50 (SN12C)	GI50 (HCT-15)	GI50 (NCI-H460)	GI50 (LOX IMVI)	GI50 (CAKI-1)	GI50 (Malme-3M)	GI50 (NCI/ADR-RES)	GI50 (MDA-MB-231)
O=C1CCc2cc(Br)ccc2O1	> 100 µM (inactive)	> 100 µM (inactive)	26.4 µM (inactive)	> 100 µM (inactive)	22.4 µM (inactive)	67.3 µM (inactive)	> 100 µM (inactive)	30 µM (inactive)	> 100 µM (inactive)	49.1 µM (inactive)	> 100 µM (inactive)	> 100 µM (inactive)	92.9 µM (inactive)	> 100 µM	> 100 µM (inactive)	50.5 µM (inactive)	38.4 µM (inactive)	> 100 µM (inactive)	–	–
CC(C)(C)OC(=O)NNC(=O)C1Cc2ccccc2OC1=O (stereo not given)	> 100 µM (inactive)	> 100 µM (inactive)	> 100 µM (inactive)	> 100 µM (inactive)	> 100 µM (inactive)	> 100 µM (inactive)	> 100 µM (inactive)	> 100 µM (inactive)	> 100 µM (inactive)	> 100 µM (inactive)	> 100 µM (inactive)	> 100 µM (inactive)	> 100 µM (inactive)	> 100 µM	> 100 µM (inactive)	–	> 100 µM (inactive)	> 100 µM (inactive)	> 100 µM (inactive)	–
Cc1ccc([N+](=O)[O-])c2c(NCC(O)CO)ccnc12 (stereo not given)	50 µM (inactive)	36.4 µM (inactive)	18.6 µM (inactive)	31.8 µM (inactive)	73.8 µM (inactive)	43.2 µM (inactive)	14.3 µM (inactive)	93.8 µM (inactive)	84.9 µM (inactive)	57.5 µM (inactive)	70.3 µM (inactive)	49.2 µM (inactive)	75.3 µM (inactive)	28.8 µM	20 µM (inactive)	37.6 µM (inactive)	54 µM (inactive)	16.4 µM (inactive)	> 100 µM (inactive)	–
CC(=O)CC1(O)C(=O)c2c(Br)sc(Br)c2C1=O	32.8 µM (inactive)	19.6 µM (inactive)	18.4 µM (inactive)	17.8 µM (inactive)	29 µM (inactive)	17 µM (inactive)	22.2 µM (inactive)	24 µM (inactive)	31.3 µM (inactive)	34.3 µM (inactive)	20.6 µM (inactive)	25.1 µM (inactive)	19.4 µM (inactive)	20.4 µM	45.1 µM (inactive)	17.7 µM (inactive)	17.3 µM (inactive)	18.1 µM (inactive)	36.5 µM (inactive)	–
OC(/C(=N/c1ccccc1)c1ccccc1)c1ccccc1 (stereo not given)	3.85 µM (inactive)	2.17 µM (inactive)	2.07 µM (inactive)	–	17.1 µM (inactive)	9.46 µM (inactive)	2.26 µM (inactive)	4.1 µM (inactive)	4.49 µM (inactive)	14.4 µM (inactive)	–	10.5 µM (inactive)	10.7 µM (inactive)	29 µM	6.5 µM (inactive)	12.4 µM (inactive)	11.9 µM (inactive)	2.22 µM (inactive)	23.5 µM (inactive)	13.8 µM (inactive)
COC(=O)C1(C(=O)OC)N=C(C)OC1/C=C/c1ccccc1 (stereo not given)	> 100 µM (inactive)	> 100 µM (inactive)	> 100 µM (inactive)	> 100 µM (inactive)	> 100 µM (inactive)	> 100 µM (inactive)	> 100 µM (inactive)	> 100 µM (inactive)	38 µM (inactive)	> 100 µM (inactive)	> 100 µM (inactive)	> 100 µM (inactive)	> 100 µM (inactive)	> 100 µM	> 100 µM (inactive)	> 100 µM (inactive)	> 100 µM (inactive)	–	> 100 µM (inactive)	–
